Key:
EP2 receptor = biological target: T1, EP2 receptor (Homo sapiens, UniProt P43116); assay: hEP2 cAMP assay (SF295 glioblastoma cells, HTRF cAMP, PGE2 stimulation); format: cell-based; settings: antagonistic activity
T1 construct: SF295 glioblastoma cells express high endogenous EP2 and no EP4; host or cells: SF295 glioblastoma cells
Procedure, shortened: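 SF295 glioblastoma cells with endogenous EP2 and no EP4, in HBSS/HEPES/BSA with 2 mM IBMX, pre-incubated 45 min at room temperature with compound, then stimulated 30 min with 75 nM PGE2 (EC80). cAMP measured by HTRF; IC50 fitted from duplicate % cAMP versus DMSO control.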

EP4 receptor = biological target: T2, EP4 receptor (Homo sapiens, UniProt P35408); assay: hEP4 cAMP assay (BT549 breast cancer cells, HTRF cAMP, PGE2 stimulation); format: cell-based; settings: antagonistic activity, PGE2 6 nM (EC80)
T2 construct: BT549 breast cancer cells, express high endogenous EP4 levels and very low EP2 levels; host or cells: BT549 breast cancer cells
Procedure, shortened: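 BT549 cells, with endogenous EP4 and very low EP2, were preincubated 45 min at room temperature with compound in HBSS/HEPES/BSA buffer with 2 mM IBMX. They were then stimulated 30 min with 6 nM PGE2 (EC80). cAMP was measured by HTRF competitive immunoassay against a calibrator; IC50 from duplicate dose-response as % of DMSO control.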

T1 sequence (P43116 whole entry): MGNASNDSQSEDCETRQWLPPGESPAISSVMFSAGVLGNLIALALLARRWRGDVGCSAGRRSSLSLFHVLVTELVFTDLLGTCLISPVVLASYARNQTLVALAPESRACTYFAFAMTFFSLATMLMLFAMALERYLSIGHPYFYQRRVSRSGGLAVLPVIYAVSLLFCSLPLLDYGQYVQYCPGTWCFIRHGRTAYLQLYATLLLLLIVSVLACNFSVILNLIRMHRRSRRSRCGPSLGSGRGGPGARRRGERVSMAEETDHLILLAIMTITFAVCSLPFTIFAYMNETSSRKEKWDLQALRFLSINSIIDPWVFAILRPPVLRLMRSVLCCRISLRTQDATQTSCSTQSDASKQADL
T2 sequence (P35408 whole entry): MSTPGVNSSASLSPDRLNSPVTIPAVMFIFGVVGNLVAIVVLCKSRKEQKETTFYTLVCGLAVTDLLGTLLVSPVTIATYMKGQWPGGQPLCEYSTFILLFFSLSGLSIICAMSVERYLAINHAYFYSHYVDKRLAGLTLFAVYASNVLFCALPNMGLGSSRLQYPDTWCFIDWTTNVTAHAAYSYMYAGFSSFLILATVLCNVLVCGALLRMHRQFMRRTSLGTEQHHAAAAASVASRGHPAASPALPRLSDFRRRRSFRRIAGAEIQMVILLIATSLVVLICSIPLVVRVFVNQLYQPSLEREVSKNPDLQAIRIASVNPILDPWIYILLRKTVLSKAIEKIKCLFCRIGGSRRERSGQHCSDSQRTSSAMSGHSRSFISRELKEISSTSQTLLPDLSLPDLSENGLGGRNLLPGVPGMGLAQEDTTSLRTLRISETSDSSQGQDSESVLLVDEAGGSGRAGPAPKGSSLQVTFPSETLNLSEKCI

Compound | IC50 (EP2 receptor) | IC50 (EP4 receptor)
Cc1oc2c(C)cc(F)cc2c1CCNc1cc(-c2ccc(C(=O)O)c(OC3CCCC3)c2)ncn1 [Example 154, 2-Cyclopentyloxy-4-{6-[2-(5-fluoro-2,7-dimethyl-benzofuran-3-yl)-ethylamino]-pyrimidin-4-yl}-benzoic acid] | 70 nM | 901 nM
COc1ccc(Cl)c2c(CCNc3cc(-c4ccc(C(=O)O)c(OC5CCCC5)c4)ncn3)c(C)sc12 [Example 153, 4-{6-[2-(4-Chloro-7-methoxy-2-methyl-benzo[b]thiophen-3-yl)-ethylamino]-pyrimidin-4-yl}-2-cyclopentyloxy-benzoic acid] | 212 nM | 827 nM
COc1ccc(F)c2c(CCNc3cc(-c4ccc(C(=O)O)c(OC5CCC5)c4F)ncn3)c(C)sc12 [Example 146, 2-Cyclobutoxy-3-fluoro-4-{6-[2-(4-fluoro-7-methoxy-2-methyl-benzo[b]thiophen-3-yl)-ethylamino]-pyrimidin-4-yl}-benzoic acid] | 47 nM | 243 nM
CCOc1cc(-c2cc(NCCc3c(C)sc4c(C)ccc(F)c34)ncn2)cc(C)c1C(=O)O [Example 103, 2-Ethoxy-4-{6-[2-(4-fluoro-2,7-dimethyl-benzo[b]thiophen-3-yl)-ethylamino]-pyrimidin-4-yl}-6-methyl-benzoic acid] | 111 nM | 331 nM
CCOc1nc(-c2cc(NCCc3c(C)sc4c(C)cc(F)cc34)ncn2)sc1-c1noc(=O)[nH]1 [Example 162, 3-(4-Ethoxy-2-{6-[2-(5-fluoro-2,7-dimethyl-benzo[b]thiophen-3-yl)-ethylamino]-pyrimidin-4-yl}-thiazol-5-yl)-[1,2,4]oxadiazol-5(4H)-one [tautomeric form: 3-(4-ethoxy-2-(6-((2-(5-fluoro-2,7-dimethylbenzo[b]thiophen-3-yl)ethyl)amino)pyrimidin-4-yl)thiazol-5-yl)-[1,2,4]oxadiazol-5-ol]] | 35 nM | 51 nM
CCCOc1cc(-c2cc(NCCc3c(C)sc4c(OC)ccc(Cl)c34)ncn2)ccc1C(=O)O [Example 101, 4-{6-[2-(4-Chloro-7-methoxy-2-methyl-benzo[b]thiophen-3-yl)-ethylamino]-pyrimidin-4-yl}-2-propoxy-benzoic acid] | 85 nM | 482 nM
COc1cc(Cl)cc2c(CCNc3cc(-c4cc(F)c(C(=O)O)c(OC5CCC5)c4)ncn3)c(C)oc12 [Example 151, 4-{6-[2-(5-Chloro-7-methoxy-2-methyl-benzofuran-3-yl)-ethylamino]-pyrimidin-4-yl}-2-cyclobutoxy-6-fluoro-benzoic acid] | 95 nM | 631 nM
O=C(O)c1ccc(-c2cc(NCCc3csc4ccccc34)ncn2)cc1OC1CCC1 [Example 132, 4-[6-(2-Benzo[b]thiophen-3-yl-ethylamino)-pyrimidin-4-yl]-2-cyclobutoxy-benzoic acid] | 167 nM | 166 nM
CCCc1cc(-c2cc(NCCc3c(C)sc4c(C)cc(F)cc34)ncn2)ccc1CC(=O)O [Example 186, (4-{6-[2-(5-Fluoro-2,7-dimethyl-benzo[b]thiophen-3-yl)-ethylamino]-pyrimidin-4-yl}-2-propyl-phenyl)-acetic acid] | 309 nM | 252 nM
Cc1oc2c(Cl)cccc2c1CCNc1cc(-c2ccc(C(=O)O)c(OC3CCC3)c2)ncn1 [Example 137, 4-{6-[2-(7-Chloro-2-methyl-benzofuran-3-yl)-ethylamino]-pyrimidin-4-yl}-2-cyclobutoxy-benzoic acid] | 49 nM | 423 nM
COc1cc(Cl)cc2c(CCNc3cc(-c4ccc(C(=O)O)c(OC5CCC5)c4)ncn3)c(C)oc12 [Example 133, 4-{6-[2-(5-Chloro-7-methoxy-2-methyl-benzofuran-3-yl)-ethylamino]-pyrimidin-4-yl}-2-cyclobutoxy-benzoic acid] | 68 nM | 170 nM
CCOc1cc(-c2cc(NCCc3c(C)sc4c(C)ccc(F)c34)ncn2)ccc1OCC(=O)O [Example 118, (2-Ethoxy-4-{6-[2-(4-fluoro-2,7-dimethyl-benzo[b]thiophen-3-yl)-ethylamino]-pyrimidin-4-yl}-phenoxy)-acetic acid] | 112 nM | 87 nM
Cc1sc2c(C)cc(F)cc2c1CCNc1cc(-c2ccc(C(=O)O)c(OC(F)F)c2)ncn1 [Example 115, 2-Difluoromethoxy-4-{6-[2-(5-fluoro-2,7-dimethyl-benzo[b]thiophen-3-yl)-ethylamino]-pyrimidin-4-yl}-benzoic acid] | 8 nM | 60 nM
CCOc1cc(-c2cc(NCCc3c(C#N)sc4c(C)cc(F)cc34)ncn2)ccc1CC(=O)O [Example 104, (4-{6-[2-(2-Cyano-5-fluoro-7-methyl-benzo[b]thiophen-3-yl)-ethylamino]-pyrimidin-4-yl}-2-ethoxy-phenyl)-acetic acid] | 48 nM | 30 nM
CCOc1cc(-c2cc(NCCc3c(C)sc4c(OC)ccc(F)c34)ncn2)ccc1CC(=O)O [Example 105, (2-Ethoxy-4-{6-[2-(4-fluoro-7-methoxy-2-methyl-benzo[b]thiophen-3-yl)-ethylamino]-pyrimidin-4-yl}-phenyl)-acetic acid] | 157 nM | 125 nM
CCOc1cc(-c2cc(NCCc3c(C)sc4c(C)cc(F)cc34)ncn2)ccc1CC(=O)O [Example 110, (2-Ethoxy-4-{6-[2-(5-fluoro-2,7-dimethyl-benzo[b]thiophen-3-yl)-ethylamino]-pyrimidin-4-yl}-phenyl)-acetic acid] | 160 nM | 296 nM
COc1ccc(Cl)c2c(CCNc3cc(-c4ccc(C(=O)O)c(O)c4)ncn3)c(C)sc12 [Example 9, 4-{6-[2-(4-Chloro-7-methoxy-2-methyl-benzo[b]thiophen-3-yl)-ethylamino]-pyrimidin-4-yl}-2-hydroxy-benzoic acid] | 44 nM | 550 nM
Cc1sc2c(C)cccc2c1CCNc1cc(-c2ccc(C(=O)O)cc2)ncn1 [Example 8, 4-{6-[2-(2,7-Dimethyl-benzo[b]thiophen-3-yl)-ethylamino]-pyrimidin-4-yl}-benzoic acid] | 8 nM | 369 nM
COc1cc(-c2cc(NCCc3c(C#N)sc4c(C)cc(F)cc34)ncn2)ccc1CC(=O)O [Example 168, (4-{6-[2-(2-Cyano-5-fluoro-7-methyl-benzo[b]thiophen-3-yl)-ethylamino]-pyrimidin-4-yl}-2-methoxy-phenyl)-acetic acid] | 3030 nM | 2990 nM
CCOc1nc(-c2cc(NCCc3c(C)sc4c(C)cc(F)cc34)ncn2)sc1C(=O)O [Example 160, 4-Ethoxy-2-{6-[2-(5-fluoro-2,7-dimethyl-benzo[b]thiophen-3-yl)-ethylamino]-pyrimidin-4-yl}-thiazole-5-carboxylic acid] | 10 nM | 18 nM
CCCCOc1cc(-c2cc(NCCc3c(C)sc4c(C)cc(F)cc34)ncn2)cc(F)c1C(=O)O [Example 144, 2-Butoxy-6-fluoro-4-{6-[2-(5-fluoro-2,7-dimethyl-benzo[b]thiophen-3-yl)-ethylamino]-pyrimidin-4-yl}-benzoic acid] | 26 nM | 112 nM
CCOc1cc(-c2cc(NCCc3c(C)sc4c(C)cc(F)cc34)ncn2)ccc1C(=O)C(=O)O [Example 189, (2-Ethoxy-4-{6-[2-(5-fluoro-2,7-dimethyl-benzo[b]thiophen-3-yl)-ethylamino]-pyrimidin-4-yl}-phenyl)-oxo-acetic acid] | 27 nM | 121 nM
